Assay results reported in patent publication US20150111860A1, “SUSPOEMULSION” (SUMITOMO CHEMICAL COMPANY, LIMITED, priority 2012, published 2015).
Like-named read-outs stand apart in the source and are kept apart here.

Assay: Solubility of ingredient (2) in 100 g of the oil phase (ingredient (1)) at 25° C. by HPLC
Format: physicochemical
Procedure: The solubility can be determined in the following manner. That is, an ingredient (2) is added to an ingredient (1), followed by mixing with stirring. After being left to stand in a constant temperature water bath at 25° C., the supernatant containing the ingredient (2) in a saturated state is isolated and filtered to obtain a solution, and then a prescribed amount of an internal standard fluid is added to prepare a sample liquid for analysis. Using the sample liquid for analysis, high-performance liquid chromatography is performed, thus enabling the measurement of the solubility.

[1] = oil phase composed of pyridalyl and Exxsol D110, 25° C.

Row | Compound | solubility in 100 g of the oil phase (oil phase composed of esfenvalerate and Solvesso 150, 25° C.) | solubility in 100 g of the oil phase [1] | solubility in 100 g of the oil phase (oil phase composed of tolclofos-methyl and Solvesso 150, 25° C.) | solubility in 100 g of the oil phase
1 | CN/C(=N\[N+](=O)[O-])NCc1cnc(Cl)s1 [clothianidin] | 0.003 g | 0.009 g | 0.002 g | 
2 | CCNc1nc(CC)c(C(=O)NC(C#N)c2cccs2)s1 (stereo not drawn) [ethaboxam] |  |  |  | 0.003 g
3 | Cc1nn(C)c(Cl)c1C(=O)Nc1cccc2c1C(C)OC2(C)C (stereo not drawn) [furametpyr] |  |  |  | 0.394 g
4 | N#Cc1ccccc1NC(=O)c1snc(Cl)c1Cl [isotianil] |  | 0.020 g |  | 
